Reference: patent US20190022104A1 (priority 2016, published 2019)
“And” between values parts separate entries of the source, which are not always exact repeats. Identical values can stand only once. “Also recorded” adds a separate entry of the source. Like-named read-outs stand apart in the source and are kept apart here.

Columns and labels:
[1] = test system: mice with sepsis shock induced by 75 mg/kg endotoxin; test: Survival of mice with sepsis shock induced by 75 mg/kg endotoxin; format: in vivo; conditions: for number of mice survived / number of mice died: 10 mice per group; for number of mice survived: endotoxin group 4 survived; for number of mice died: endotoxin group 6 died; for survival rate of mice: sepsis shock induced by 75 mg/kg endotoxin i.p., 10 animals per group, endotoxin group 40%, normal control 100%
Description: (§1) The model of septic shock in mice was induced by intraperitoneal injection of a toxic dose of 75 mg/kg endotoxin. […] The model of sepsis shock in mice was induced by intraperitoneal injection of a total lethal dose of 150 mg/kg endotoxin. […] Mice injected intraperitoneally with placebo in place of endotoxin were used as a normal control group.
The model of sepsis shock in mice was induced with 75 mg/kg endotoxin.

[2] = test system: mice with sepsis shock induced by 150 mg/kg endotoxin; test: Survival time of mice with sepsis shock induced by 150 mg/kg endotoxin; format: in vivo; conditions: for average survival time of mice: 150 mg/kg endotoxin i.p. (total lethal dose), endotoxin group 29.15±6.84 hours, p<0.05 vs endotoxin group
Description: as §1
The septic shock in mice was induced with 150 mg/kg endotoxin and the survival curves were plotted according to the survival time of mice in each group.

[3] = test system: TNF-α in serum; test: Serum TNF-α concentration in rats with endotoxin-induced sepsis shock; format: in vivo
[4] = test system: lung tissue of rats with sepsis shock; test: Pathological change in lung tissue under microscope, rats with sepsis shock; format: in vivo; conditions: compared with the endotoxin group
[5] = test system: liver tissue of rats with sepsis shock; test: Pathological change in liver tissue under microscope, rats with sepsis shock; format: in vivo; conditions: compared with the endotoxin group
Description: as §1

[6] = test system: gastric and duodenal ulcers; conditions: patients; cited from earlier work
[7] = cited from earlier work
[8] = cited from earlier work; remark: listed apart in the source
[9] = test system: mouse sepsis model (LPS 75 mg/kg); test: Effects of different doses of pirenzepine in LPS mouse sepsis model; conditions: 0.3-1.2 mg/kg i.p.; no statistically significant difference between dose groups
Description: After 30 minutes, LPS (75 mg/kg) was injected intraperitoneally to produce a mouse sepsis model.

[10] = 0 min after sepsis shock was reached, endotoxin group 641.05±24.75, normal control 159.36±50.40
[11] = 30 min after sepsis shock was reached, endotoxin group 677.95±47.05, normal control 223.41±27.42
[12] = 90 min after sepsis shock was reached, endotoxin group 716.11±24.41, normal control 166.86±28.80

Structure (SMILES)	number of mice survived ([1]; 75 mg/kg endotoxin)	number of mice died ([1]; 75 mg/kg endotoxin)	survival rate of mice [1] [%]	average survival time of mice [2] [h]	concentration of TNF-α in serum of rats [3, 10]	concentration of TNF-α in serum of rats [3, 11]	concentration of TNF-α in serum of rats [3, 12]	pathological changes of the lung tissue under microscope [4]	pathological changes of the liver tissue under microscope [5]	further results
CN1CCN(CC(=O)N2c3ccccc3C(=O)Nc3cccnc32)CC1 [pirenzepine, 11-[(4-methylpiperazin-1-yl)acetyl]-5,11-dihydro-6H-pyrido[2,3-b][1,4]benzodiazepin-6-one]	8	2	80	44.6 ± 11.96	378.12±17.87 pg/mL and 378.12 ± 17.87^a pg/mL	418.19±22.75 pg/mL and 418.19 ± 22.75^c pg/mL	446.35±33.04 pg/mL and 446.35 ± 33.04^e pg/mL	congestion, exudation, and necrosis were significantly reduced; also recorded: the exudation was significantly reduced, and edema and inflammation in the alveolar septum were reduced	the lesions were all relieved; also recorded: the lesions were reduced	effect on mortality of mice with sepsis ([1]; 75 mg/kg endotoxin, FIG. 1): significantly reduced the mortality; effect on mortality of mice with sepsis ([2]; 150 mg/kg endotoxin, FIG. 2): significantly reduced the mortality; serum TNF-α concentrations compared with the endotoxin-untreated group ([3]; rats, at 0, 30, 90 and 150 minutes, p<0.05): significantly lower; healing rate of the ulcer [6]: 70%-94%; solubility ([7]; in anhydrous ethanol): very easily soluble; solubility ([7]; in formic acid): soluble; solubility ([7]; in methanol): insoluble; solubility ([7]; in water): soluble; plasma protein binding rate ([8]; in vivo): about 10%; plasma t½ ([8]; in vivo): 10 to 12 h; tmax ([8]; oral): 2 to 3 h; absolute bioavailability ([8]; oral, printed spread (±4,6%)): about 26%; effect of low-dose pretreatment on survival time of mice with sepsis [9]: can prolong the survival time
CCN(CC)CC1CCCCN1CC(=O)N1c2ccccc2C(=O)Nc2cccnc21 (centres unmarked) [AF-DX116, 11-[[2-[(Diethylamino)methyl]-1-piperidinyl]acetyl]-5,11-dihydro-6H-pyrido[2,3-b][1,4]benzodi azepin-6-one]	1	9	10	16.02 ± 2.06	706.19 ± 6.00 pg/mL	757.48 ± 51.40 pg/mL	857.21 ± 74.14 pg/mL	the destruction of the tissue was aggravated; also recorded: pathological changes were aggravated	cell necrosis was more serious; also recorded: cell necrosis was more severe	concentration of TNF-α in serum of rats ([3]; 150 min after sepsis shock was reached, endotoxin group 737.00±16.38, normal control 161.47±9.75): 932.22 ± 17.25 pg/mL
CN1[C@@H]2CC[C@H]1C[C@@H](OC(=O)C(CO)c1ccccc1)C2 (some centres unmarked) [atropine]	7		70	37.15 ± 9.27			598.54±48.85 pg/mL and 598.54 ± 48.85^f pg/mL	congestion, exudation, and necrosis were significantly reduced; also recorded: the exudation was significantly reduced, and alveolar septum widening was reduced	the lesions were all relieved; also recorded: the edema and necrosis of hepatocytes were all reduced	
